System: HIV-1 (H9IIIB virus)
Test: Viking assay: antiviral potency in a multiple round HIV-1 infection assay (MT4-GFP cells)
Type: cell-based
Settings: Human immunodeficiency virus 1, MT4-GFP cells, 10% normal human serum; inhibition of reproductive ratio R0; read-out: Viking, IC50 (10% NHS)
Protocol: Assessing Antiviral Potency in a Multiple Round HIV-1 Infection Assay.
HIV-1 replication was monitored using MT4-gag-GFP clone D3 (hereafter designate MT4-GFP), which are MT-4 cells modified to harbor a GFP reporter gene, the expression of which is dependent on the HIV-1 expressed proteins tat and rev. Productive infection of an MT4-GFP cell with HIV-1 results in GFP expression approximately 24h post-infection.
MT4-GFP cells were maintained at 37° C./5% CO2/90% relative humidity in RPMI 1640 supplemented with 10% fetal bovine serum, 100 U/mL penicillin/streptomycin, and 400 μg/mL G418 to maintain the reporter gene. For infections, MT4-GFP cells were placed in the same medium lacking G418 and infected overnight with H9IIIB virus at an approximate multiplicity of infection of 0.01 in the same incubation conditions. Cells were then washed and re-suspended in either RPMI 1640 containing 10% or 50% normal human serum at 1.6×10^5 cells/mL. Compound plates were prepared by dispensing compounds dissolved in DMSO into wells of 384 well poly D lysine-coated plates ([…]) using an ECHO acoustic dispenser. Each compound was tested in a 10 point serial 3-fold dilution (typical final concentrations: 8.4 μM-0.43 nM). Controls included no inhibitor (DMSO only) and a combination of three antiviral agents (efavirenz, indinavir, and an integrase strand transfer inhibitor at final concentrations of 4 μM each). Cells were added (50 μL/well) to compound plates and the infected cells were maintained at 37° C./5% CO2/90% relative humidity.
Infected cells were quantified at two time points, ˜48h and ˜72h post-infection, by counting the number of green cells in each well using an Acumen eX3 scanner. The increase in the number of green cells over ˜24h period gives the reproductive ratio, R0, which is typically 5-15 and has been shown experimentally to be in logarithmic phase (data not shown). Inhibition of R0 is calculated for each well, and IC50s determined by non-linear 4-parameter curve fitting.

Structure (SMILES)	IC50 [µM]
C#C[C@]1(CO[P@@](=O)(N[C@@H](C)C(=O)OC(C)C)Oc2ccccc2)C[C@@H](n2cnc3c(OCC)nc(N)nc32)C[C@@H]1O (mixture of isomers) [Example 39A and 39B, Isopropyl ((S)-(((1S,2S,4R)-4-(2-amino-6-ethoxy-9H-purin-9-yl)-1-ethynyl-2-hydroxycyclopentyl)methoxy)(phenoxy)phosphoryl)-L-alaninate and Isopropyl ((S)-(((1R,2R,4S)-4-(2-amino-6-ethoxy-9H-purin-9-yl)-1-ethynyl-2-hydroxycyclopentyl)methoxy)(phenoxy)phosphoryl)-L-alaninate]	0.0271
C#C[C@]1(CO)C[C@@H](n2cnc3c(Cl)nc(F)nc32)C[C@@H]1O (racemic) [Example (+/−) 12, (1S,2S,4R)-4-(6-chloro-2-fluoro-9H-purin-9-yl)-2-ethynyl-2-(hydroxymethyl)cyclopentan-1-ol and (1R,2R,4S)-4-(6-chloro-2-fluoro-9H-purin-9-yl)-2-ethynyl-2-(hydroxymethyl)cyclopentan-1-ol]	> 42
C#C[C@]1(CO)C[C@@H](n2ccc3c(Cl)nc(Cl)nc32)C[C@@H]1O (racemic) [Example (+/−) 21, (1S,2S,4R)-4-(2,4-dichloro-7H-pyrrol[2,3-d]pyrimidin-7-yl)-2-ethynyl-2-(hydroxymethyl)cyclopentan-1-ol and (1R,2R,4S)-4-(2,4-dichloro-7H-pyrrolo[2,3-d]pyrimidin-7-yl)-2-ethynyl-2-(hydroxymethyl)cyclopentan-1-ol]	> 42
C#C[C@]1(CO)C[C@@H](n2ccc3c(N)nc(Cl)nc32)C[C@@H]1O (racemic) [Example (+/−) 22, (1S,2S,4R)-4-(4-amino-2-chloro-7H-pyrrolo[2,3-d]pyrimidin-7-yl)-2-ethynyl-2-(hydroxymethyl)cyclopentan-1-ol and (1R,2R,4S)-4-(4-amino-2-chloro-7H-pyrrolo[2,3-d]pyrimidin-7-yl)-2-ethynyl-2-(hydroxymethyl)cyclopentan-1-ol]	22.2
C#C[C@]1(CO)C[C@@H](n2cnc3c(=O)[nH]c(N)nc32)C[C@@H]1O (racemic) [Example (+/−) 26, 2-amino-9-((1R,3S,4S)-3-ethynyl-4-hydroxy-3-(hydroxymethyl)cyclopentyl)-1,9-dihydro-6H-purin-6-one and 2-amino-9-((1S,3R,4R)-3-ethynyl-4-hydroxy-3-(hydroxymethyl)cyclopentyl)-1,9-dihydro-6H-purin-6-one]	0.195
C#C[C@]1(CO)C[C@@H](n2cnc3c(OCC)nc(N)nc32)C[C@@H]1O (racemic) [Example (+/−) 30, (1S,2S,4R)-4-(2-amino-6-ethoxy-9H-purin-9-yl)-2-ethynyl-2-(hydroxymethyl)cyclopentan-1-ol and (1R,2R,4S)-4-(2-amino-6-ethoxy-9H-purin-9-yl)-2-ethynyl-2-(hydroxymethyl)cyclopentan-1-ol]	0.614
C#C[C@]1(CO)C[C@@H](n2cc(C)c(=O)[nH]c2=O)C[C@@H]1O (racemic) [Example (+/−) 34, 1-((1R,3S,4S)-3-ethynyl-4-hydroxy-3-(hydroxymethyl)cyclopentyl)-5-methylpyrimidine-2,4(1H,3H)-dione and 1-((1S,3R,4R)-3-ethynyl-4-hydroxy-3-(hydroxymethyl)cyclopentyl)-5-methylpyrimidine-2,4(1H,3H)-dione]	> 42
C#C[C@]1(CO)C[C@@H](n2ccc(N)nc2=O)C[C@@H]1O (racemic) [Example (+/−) 38, 4-amino-1-((1R,3S,4S)-3-ethynyl-4-hydroxy-3-(hydroxymethyl)cyclopentyl)pyrimidin-2(1H)-one and 4-amino-1-((1S,3R,4R)-3-ethynyl-4-hydroxy-3-(hydroxymethyl)cyclopentyl)pyrimidin-2(1H)-one]	> 42
N#C[C@]1(CO)C[C@@H](n2cnc3c(=O)[nH]c(N)nc32)C[C@@H]1O (racemic) [Example (+/−) 61, (1S,2S,4R)-4-(2-amino-6-oxo-1,6-dihydro-9H-purin-9-yl)-2-hydroxy-1-(hydroxymethyl)cyclopentane-1-carbonitrile and (1R,2R,4S)-4-(2-amino-6-oxo-1,6-dihydro-9H-purin-9-yl)-2-hydroxy-1-(hydroxymethyl)cyclopentane-1-carbonitrile]	0.998
N#C[C@]1(CO)C[C@@H](n2ccc(N)nc2=O)C[C@@H]1O (racemic) [Example (+/−) 65, (1S,2S,4R)-4-(4-amino-2-oxopyrimidin-1(2H)-yl)-2-hydroxy-1-(hydroxymethyl)cyclopentane-1-carbonitrile and (1R,2R,4S)-4-(4-amino-2-oxopyrimidin-1(2H)-yl)-2-hydroxy-1-(hydroxymethyl)cyclopentane-1-carbonitrile]	> 42
Cc1cn([C@H]2C[C@H](O)[C@@](C#N)(CO)C2)c(=O)[nH]c1=O (racemic) [Example (+/−) 69, (1S,2S,4R)-2-hydroxy-1-(hydroxymethyl)-4-(5-methyl-2,4-dioxo-3,4-dihydropyrimidin-1(2H)-yl)cyclopentane-1-carbonitrile and (1R,2R,4S)-2-hydroxy-1-(hydroxymethyl)-4-(5-methyl-2,4-dioxo-3,4-dihydropyrimidin-1(2H)-yl)cyclopentane-1-carbonitrile]	16
C#C[C@]1(CO)C[C@@H](n2cnc3c(N)nc(Cl)nc32)C[C@@H]1O (single isomer, unassigned) [Example 18B, (1S,2S,4R)-4-(6-amino-2-chloro-9H-purin-9-yl)-2-ethynyl-2-(hydroxymethyl)cyclopentan-1-ol or (1R,2R,4S)-4-(6-amino-2-chloro-9H-purin-9-yl)-2-ethynyl-2-(hydroxymethyl)cyclopentan-1-ol]	11.7
C#C[C@@]1(CO[P@@](=O)(N[C@@H](C)C(=O)OC(C)C)Oc2ccccc2)C[C@H](n2cnc3c(OCC)nc(N)nc32)C[C@H]1O (single isomer, unassigned) [Example 39A, Isopropyl ((S)-(((1S,2S,4R)-4-(2-amino-6-ethoxy-9H-purin-9-yl)-1-ethynyl-2-hydroxycyclopentyl)methoxy)(phenoxy)phosphoryl)-L-alaninate or Isopropyl ((S)-(((1R,2R,4S)-4-(2-amino-6-ethoxy-9H-purin-9-yl)-1-ethynyl-2-hydroxycyclopentyl)methoxy)(phenoxy)phosphoryl)-L-alaninate]	0.484
C#C[C@]1(CO[P@@](=O)(N[C@@H](C)C(=O)OC(C)C)Oc2ccccc2)C[C@@H](n2cnc3c(OCC)nc(N)nc32)C[C@@H]1O (single isomer, unassigned) [Example 39B, Isopropyl ((S)-(((1S,2S,4R)-4-(2-amino-6-ethoxy-9H-purin-9-yl)-1-ethynyl-2-hydroxycyclopentyl)methoxy)(phenoxy)phosphoryl)-L-alaninate or Isopropyl ((S)-(((1R,2R,4S)-4-(2-amino-6-ethoxy-9H-purin-9-yl)-1-ethynyl-2-hydroxycyclopentyl)methoxy)(phenoxy)phosphoryl)-L-alaninate]	0.00593
N#C[C@]1(CO)C[C@@H](n2cnc3c(N)nc(F)nc32)C[C@@H]1O (single isomer, unassigned) [Example 73A, (1S,2S,4R)-4-(6-amino-2-fluoro-9H-purin-9-yl)-2-hydroxy-1-(hydroxymethyl)cyclopentane-1-carbonitrile or (1R,2R,4S)-4-(6-amino-2-fluoro-9H-purin-9-yl)-2-hydroxy-1-(hydroxymethyl)cyclopentane-1-carbonitrile]	> 42
N#C[C@@]1(CO)C[C@H](n2cnc3c(N)nc(F)nc32)C[C@H]1O (single isomer, unassigned) [Example 73B, (1S,2S,4R)-4-(6-amino-2-fluoro-9H-purin-9-yl)-2-hydroxy-1-(hydroxymethyl)cyclopentane-1-carbonitrile or (1R,2R,4S)-4-(6-amino-2-fluoro-9H-purin-9-yl)-2-hydroxy-1-(hydroxymethyl)cyclopentane-1-carbonitrile]	11

Same assay, conditions: MT4-GFP cells, 10% normal human serum; inhibition of reproductive ratio R0; read-out: Viking, IC50 (10% NHS)

Structure (SMILES)	IC50 [µM]
C#C[C@]1(CO)C[C@@H](n2cnc3c(=O)[nH]c(N)nc32)C[C@@H]1O (single isomer, unassigned) [Example 26A, 2-amino-9-((lR,3S,4S)-3-ethynyl-4-hydroxy-3-(hydroxymethyl)cyclopentyl)-1,9-dihydro-6H-purin-6-one or 2-amino-9-((1S,3R,4R)-3-ethynyl-4-hydroxy-3-(hydroxymethyl)cyclopentyl)-1,9-dihydro-6H-purin-6-one]	> 42
C#C[C@]1(CO)C[C@@H](n2cnc3c(=O)[nH]c(N)nc32)C[C@@H]1O (single isomer, unassigned) [Example 26B, 2-amino-9-((1R,3S,4S)-3-ethynyl-4-hydroxy-3-(hydroxymethyl)cyclopentyl)-1,9-dihydro-6H-purin-6-one or 2-amino-9-((1S,3R,4R)-3-ethynyl-4-hydroxy-3-(hydroxymethyl)cyclopentyl)-1,9-dihydro-6H-purin-6-one]	0.142

Source: US11040975B2, “Carbocyclic nucleoside reverse transcriptase inhibitors” (Merck Sharp & Dohme Corp., priority 2017, dated 2021)
